Experimental data taken from paper PMC8480782, “Efficient Dimerization Disruption of Leishmania infantum Trypanothione Reductase by Triazole-phenyl-thiazoles” (Journal of Medicinal Chemistry, 2021).

How the values were obtained:
LiTryR [1] = biological target: T1, LiTryR (Leishmania infantum, UniProt A4HSF7); experiment: Trypanothione-dependent NADPH oxidation assay (initial velocities); assay type: biochemical
T1 construct: HIS (N); made in house; host or cells: E. coli BL21 (DE3) Rossetta
Procedure: Despite the loss of activity observed during the reaction, dependency of the initial velocities (vi) on 19a and TS2 concentrations could be fitted to a model in which a rapid equilibrium is reached between the free enzyme and inhibitor (E + I) and the enzyme/inhibitor (EI) complex (Scheme 4). This analysis, based on vi values, was performed both in a DTNB-coupled assay and in a direct NADPH-oxidation assay (Figure S1 and Table S1).
Figure S1. Noncompetitive hyperbolic inhibition of Li TryR by 19a. Initial velocities were used for determination of the KKi value and assessment of the inhibition modality of 19a by two different methods: DTNB-coupled assay (absorbance readings at 412 nm) (A) and trypanothione- dependent NADPH oxidation assay (absorbance readings at 340 nm) (B).
Lineweaver–Burk plots of reciprocal initial velocities ( vi) versus reciprocals of four TS2 concentrations (12.5, 25, 50 and 100 μM) are shown. Experimental conditions in both experiments were similar to those described in the experimental section except that for the NADPH oxidation assay NADPH concentration was raised to 500 µM, NADP+ to 100 µM and 4.8 mM of oxidized glutathione was added. Data were f itted using the hyperbolic noncompetitive- mode equation described by Leskovac: […]
Table S1. Estimation of β and Ki in the noncompetitive hyperbolic inhibition mechanism by […]

LiTryR [2] = biological target: T1, LiTryR; experiment: Residual activity of LiTryR after incubation with inhibitor and 2500-fold dilution; assay type: biochemical; conditions: LiTryR 400 nM, 25 μM inhibitor 16 h
Procedure: Adjustment to eq 1 (see equations in Experimental Section) of the progress curves of the reactions catalyzed by LiTryR allowed us to obtain the kobs values for six 19a concentrations (4.4, 5.9, 7.9, 10.5, 14.1, and 18.7 μM) at six different TS2 concentrations (3.1, 6.2, 12.5, 25, 50, and 100 μM) (Figures S2–S7 and Table S2). The different kobs values obtained at each substrate concentration can be used to determine the apparent inhibitory constants Ki^app and Ki*^app defined as the dissociation constant for the initial EI complex and the constant for the overall dissociation from E*I to E + I, respectively (eq 2).[42a],[42b] Based on the relationship among kobs, vi, and vs (k6 = kobs × vi/vs) at all of the trypanothione disulfide (TS2) and 19a concentrations assayed, k6 varies between 3.9 × 10^–6 and 6.5 × 10^–5 s^–1. […] Fixing this value for k6 rendered very good estimations of Ki^app and Ki*^app after the fitting process for all of the substrate concentrations assayed (Figure 3 and Table 2).
Scheme S4. Reversible sing le-step mechanism of t im e- dependent inhibition of Li TryR by […]
& A slow and reversible equilibrium between enzyme and inhibitor is governed by association and dissociation rate constants (k3 and k4, res pec tively).
Figure S13. Residual activity of Li TryR after incubation with 19a. […] Samples were diluted (2500-fold) and residual activity was evaluated. […]

T1 sequence (A4HSF7 1-491): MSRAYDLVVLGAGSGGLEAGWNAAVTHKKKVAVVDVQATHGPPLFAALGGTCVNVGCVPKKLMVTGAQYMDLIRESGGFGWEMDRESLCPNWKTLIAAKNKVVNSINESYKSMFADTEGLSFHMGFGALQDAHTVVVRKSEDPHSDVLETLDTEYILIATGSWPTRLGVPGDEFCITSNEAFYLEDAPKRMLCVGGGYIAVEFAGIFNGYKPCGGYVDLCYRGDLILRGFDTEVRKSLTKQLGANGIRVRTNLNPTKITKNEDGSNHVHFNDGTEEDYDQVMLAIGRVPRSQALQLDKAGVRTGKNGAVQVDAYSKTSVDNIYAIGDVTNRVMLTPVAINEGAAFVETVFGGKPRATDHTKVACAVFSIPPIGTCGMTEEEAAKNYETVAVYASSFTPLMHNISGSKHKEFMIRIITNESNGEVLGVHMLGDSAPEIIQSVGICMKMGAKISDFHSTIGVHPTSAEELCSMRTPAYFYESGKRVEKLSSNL

NCCCCc1cn(-c2ccc(-c3nc(-c4ccccc4)c(-c4ccccc4)s3)c(OCCN3CCNC3=O)c2)nn1.O=C(O)C(F)(F)F [19a, 1-(2-(5-(4-(4-Ammoniobutyl)-1H-1,2,3-triazol-1-yl)-2-(4,5-diphenylthiazol-2-yl)phenoxy)ethyl)imidazolidin-2-one 2,2,2-Trifluoroacetate]
Ki (LiTryR [1]): 2500 ± 700 nM
β, noncompetitive hyperbolic inhibition mechanism (LiTryR [1]; NADPH oxidation assay, initial velocities, alpha value of 1): 0.2 ± 0.1
recovery of enzymatic activity after inactivation (LiTryR [2]): extremely slow process of recovery of the enzymatic activity
